Data: ChEMBL document CHEMBL3044741, “Synthesis of novel biologically active methylene derivatives of sydnones” (Med Chem Res, 2013)
≈ marks a conversion by molar mass, not a printed value.

Experiments:
[1] = Cytotoxicity against human MT4 cells by MTT assay; type: cell-based
[2] = test system: Cytomegalovirus; assay: Antiviral activity against Cytomegalovirus Davis in HEL cells assessed as reduction in plaque formation; type: functional, organism-based; details: Human betaherpesvirus 5, Davis
[3] = test system: Human alphaherpesvirus 3; assay: Antiviral activity against Varicella-zoster virus Oka expressing thymidine kinase infected in HEL cells assessed as reduction in plaque formation; type: functional, organism-based; details: Human alphaherpesvirus 3, strain Oka vaccine
[4] = test system: Aspergillus niger; assay: Antifungal activity against Aspergillus niger MTCC 282 at 250 ug/ml after 74 hrs by Kirby-Bauer method; type: functional; details: MTCC 282, 74 h, read-out: IZ
[5] = test system: Aspergillus clavatus; assay: Antifungal activity against Aspergillus clavatus MTCC 1323; type: functional
[6] = test system: Human alphaherpesvirus 3; assay: Antiviral activity against thymidine kinase-deficient Varicella-zoster virus infected in HEL cells assessed as reduction in plaque formation; type: functional, organism-based; details: Human alphaherpesvirus 3, HEL
[7] = test system: Human immunodeficiency virus 2; assay: Antiviral activity against HIV2 ROD infected in MT4 cells assessed as inhibition of virus-induced cytopathogenicity by MTT assay; type: functional, organism-based; details: Human immunodeficiency virus 2, ISOLATE ROD
[8] = test system: Pseudomonas aeruginosa; assay: Antibacterial activity against Pseudomonas aeruginosa MTCC 424 at 250 ug/ml after 24 hrs by Kirby-Bauer method; type: functional; details: MTCC 424, 24 h, read-out: IZ
[9] = test system: Pseudomonas aeruginosa; assay: Antibacterial activity against Pseudomonas aeruginosa MTCC 424 after 24 hrs by broth dilution method; type: functional; details: MTCC 424, 24 h
[10] = test system: Streptococcus pyogenes; assay: Antibacterial activity against Streptococcus pyogenes MTCC 442 at 250 ug/ml after 24 hrs by Kirby-Bauer method; type: functional; details: MTCC 442, 24 h, read-out: IZ
[11] = Selectivity index, ratio of CC50 for human MT4 cells to IC50 for HIV1 3B; type: functional
[12] = test system: Escherichia coli; assay: Antibacterial activity against Escherichia coli MTCC 443 at 250 ug/ml after 24 hrs by Kirby-Bauer method; type: functional; details: MTCC 443, 24 h, read-out: IZ
[13] = test system: Staphylococcus aureus; assay: Antibacterial activity against Staphylococcus aureus MTCC 96 at 250 ug/ml after 24 hrs by Kirby-Bauer method; type: functional; details: MTCC 96, 24 h, read-out: IZ
[14] = test system: Candida albicans; assay: Antifungal activity against Candida albicans MTCC 227; type: functional
[15] = test system: Aspergillus niger; assay: Antifungal activity against Aspergillus niger MTCC 282; type: functional
[16] = Cytotoxicity against human HEL cells; type: cell-based
[17] = Selectivity index, ratio of CC50 for human MT4 cells to IC50 for HIV2 ROD; type: functional
[18] = test system: Candida albicans; assay: Antifungal activity against Candida albicans MTCC 227 at 250 ug/ml after 74 hrs by Kirby-Bauer method; type: functional; details: MTCC 227, 74 h, read-out: IZ
[19] = test system: Cytomegalovirus; assay: Antiviral activity against Cytomegalovirus AD-169 infected in HEL cells assessed as reduction in plaque formation; type: functional, organism-based; details: Human betaherpesvirus 5, AD-169, HEL
[20] = Cytotoxicity against human HEL cells assessed as alteration in cell morphology; type: cell-based
[21] = test system: Human immunodeficiency virus 1; assay: Antiviral activity against HIV1 3B infected in MT4 cells assessed as inhibition of virus-induced cytopathogenicity by MTT assay; type: functional, organism-based; details: Human immunodeficiency virus 1, 3B
[22] = test system: Streptococcus pyogenes; assay: Antibacterial activity against Streptococcus pyogenes MTCC 442 after 24 hrs by broth dilution method; type: functional; details: MTCC 442, 24 h
[23] = test system: Staphylococcus aureus; assay: Antibacterial activity against Staphylococcus aureus MTCC 96 after 24 hrs by broth dilution method; type: functional; details: MTCC 96, 24 h
[24] = test system: Escherichia coli; assay: Antibacterial activity against Escherichia coli MTCC 443 after 24 hrs by broth dilution method; type: functional; details: MTCC 443, 24 h
[25] = test system: Aspergillus clavatus; assay: Antifungal activity against Aspergillus clavatus MTCC 1323 at 250 ug/ml after 74 hrs by Kirby-Bauer method; type: functional; details: MTCC 1323, 74 h, read-out: IZ

Row | Structure (SMILES) | CC50 [1] [µg/mL] | EC50 [2] [µg/mL] | EC50 [3] [µg/mL] | zone of inhibition at 250 µg/mL [4] [mm] | MIC [5] [µg/mL] | EC50 [6] [µg/mL] | IC50 [7] [µg/mL] | zone of inhibition at 250 µg/mL [8] [mm] | MIC [9] [µg/mL] | zone of inhibition at 250 µg/mL [10] [mm] | Ratio CC50/IC50 [11] | zone of inhibition at 250 µg/mL [12] [mm] | zone of inhibition at 250 µg/mL [13] [mm] | MIC [14] [µg/mL] | MIC [15] [µg/mL] | CC50 [16] [µg/mL] | Ratio CC50/IC50 [17] | zone of inhibition at 250 µg/mL [18] [mm] | EC50 [19] [µg/mL] | MCC [20] [µg/mL] | also measured
1 | Cc1ccc(-[n+]2noc([O-])c2CN2CCOCC2)cc1 | 16.6 (≈ 60.2 µM) | > 20 | > 20 | 18 | 500 (≈ 1820 µM) | > 20 | > 16.6 | 18 | 250 (≈ 908 µM) | 19 | <1 | 19 | 21 | 500 (≈ 1820 µM) | 1000 (≈ 3630 µM) | 38.4 (≈ 139 µM) | <1 | 23 | > 20 | 100 | IC50 [21]: > 16.6 µg/mL; MIC [22]: 250 µg/mL (≈ 908 µM); MIC [23]: 100 µg/mL (≈ 363 µM); MIC [24]: 200 µg/mL (≈ 726 µM); zone of inhibition at 250 µg/mL [25]: 21 mm
2 | Cc1ccc(-[n+]2noc([O-])c2CN2CCCCC2)cc1 | 18.7 (≈ 68.3 µM) | > 20 | > 20 | 24 | 250 (≈ 915 µM) | > 20 | > 18.7 | 21 | 250 (≈ 915 µM) | 18 | <1 | 21 | 16 | 250 (≈ 915 µM) | 500 (≈ 1830 µM) | 28.5 (≈ 104 µM) | <1 | 21 | > 20 | 100 | IC50 [21]: > 18.7 µg/mL; MIC [22]: 200 µg/mL (≈ 732 µM); MIC [23]: 500 µg/mL (≈ 1830 µM); MIC [24]: 100 µg/mL (≈ 366 µM); zone of inhibition at 250 µg/mL [25]: 25 mm
3 | Cc1ccc(-[n+]2noc([O-])c2CN2CCN(C)C(c3ccccc3)C2)cc1 (stereo not given) | 14.4 (≈ 39.5 µM) | > 20 | > 20 | 18 | 200 (≈ 549 µM) | > 20 | > 14.4 | 21 | 100 (≈ 274 µM) | 21 | <1 | 16 | 19 | 200 (≈ 549 µM) | 1000 (≈ 2740 µM) | 23.7 (≈ 65 µM) | <1 | 18 | > 20 | 100 | IC50 [21]: > 14.4 µg/mL; MIC [22]: 100 µg/mL (≈ 274 µM); MIC [23]: 250 µg/mL (≈ 686 µM); MIC [24]: 500 µg/mL (≈ 1370 µM); zone of inhibition at 250 µg/mL [25]: 21 mm
4 | [O-]c1on[n+](-c2ccc(Cc3ccc(-[n+]4noc([O-])c4CN4CCN(c5ccccc5)CC4)cc3)cc2)c1CN1CCN(c2ccccc2)CC1 | 10.3 (≈ 15 µM) | > 20 | > 4 | 20 | 250 (≈ 365 µM) | > 4 | > 10.3 | 22 | 100 (≈ 146 µM) | 18 | <1 | 20 | 17 | 250 (≈ 365 µM) | 1000 (≈ 1460 µM) | 12 (≈ 17.5 µM) | <1 | 21 | > 4 | ≥ 20 | IC50 [21]: > 10.3 µg/mL; MIC [22]: 200 µg/mL (≈ 292 µM); MIC [23]: 500 µg/mL (≈ 730 µM); MIC [24]: 125 µg/mL (≈ 183 µM); zone of inhibition at 250 µg/mL [25]: 25 mm
5 | CC(=O)N1CCN(Cc2c([O-])on[n+]2-c2ccc(Cc3ccc(-[n+]4noc([O-])c4CN4CCN(C(C)=O)CC4)cc3)cc2)CC1 | 12 (≈ 19.4 µM) | > 4 | > 0.8 | 21 | 250 (≈ 405 µM) | > 0.8 | > 12 | 18 | 200 (≈ 324 µM) | 16 | <1 | 18 | 20 | 250 (≈ 405 µM) | 1000 (≈ 1620 µM) | 10.2 (≈ 16.5 µM) | <1 | 23 | > 4 | 20 | IC50 [21]: > 12 µg/mL; MIC [22]: 100 µg/mL (≈ 162 µM); MIC [23]: 250 µg/mL (≈ 405 µM); MIC [24]: 250 µg/mL (≈ 405 µM); zone of inhibition at 250 µg/mL [25]: 25 mm
6 | Cc1ccc(-[n+]2noc([O-])c2CN2CCN(C)CC2)cc1 | 12.7 (≈ 44 µM) | > 20 | > 20 | 21 | 500 (≈ 1730 µM) | > 20 | > 12.7 | 21 | 100 (≈ 347 µM) | 20 | <1 | 18 | 16 | 500 (≈ 1730 µM) | 500 (≈ 1730 µM) | 25.6 (≈ 88.8 µM) | <1 | 18 | > 20 | 100 | IC50 [21]: > 12.9 µg/mL; MIC [22]: 100 µg/mL (≈ 347 µM); MIC [23]: 500 µg/mL (≈ 1730 µM); MIC [24]: 250 µg/mL (≈ 867 µM); zone of inhibition at 250 µg/mL [25]: 21 mm
7 | [O-]c1on[n+](-c2ccc(Cc3ccc(-[n+]4noc([O-])c4CN4CCN(C5=Nc6ccccc6Sc6ccccc65)CC4)cc3)cc2)c1CN1CCN(C2=Nc3ccccc3Sc3ccccc32)CC1 | 11.6 (≈ 12.2 µM) | > 20 | > 4 | 18 | 500 (≈ 526 µM) | > 4 | > 11.6 | 21 | 125 (≈ 131 µM) | 18 | <1 | 19 | 23 | 500 (≈ 526 µM) | 1000 (≈ 1050 µM) | 13.8 (≈ 14.5 µM) | <1 | 25 | > 20 | 100 | IC50 [21]: > 11.6 µg/mL; MIC [22]: 250 µg/mL (≈ 263 µM); MIC [23]: 62.5 µg/mL (≈ 65.7 µM); MIC [24]: 250 µg/mL (≈ 263 µM); zone of inhibition at 250 µg/mL [25]: 23 mm
8 | CN1CCN(Cc2c([O-])on[n+]2-c2ccc(Cc3ccc(-[n+]4noc([O-])c4CN4CCN(C)C(c5ccccc5)C4)cc3)cc2)CC1c1ccccc1 (stereo not given) | 14 (≈ 19.6 µM) | > 20 | > 20 | 20 | 500 (≈ 701 µM) | > 20 | > 14 | 18 | 250 (≈ 351 µM) | 18 | <1 | 21 | 16 | 500 (≈ 701 µM) | 1000 (≈ 1400 µM) | 36.8 (≈ 51.6 µM) | <1 | 18 | > 20 | 100 | IC50 [21]: > 14 µg/mL; MIC [22]: 250 µg/mL (≈ 351 µM); MIC [23]: 500 µg/mL (≈ 701 µM); MIC [24]: 100 µg/mL (≈ 140 µM); zone of inhibition at 250 µg/mL [25]: 23 mm
9 | Cc1ccc(-[n+]2noc([O-])c2CN2CCN(c3cccc(Cl)c3Cl)CC2)cc1 | 31.7 (≈ 75.6 µM) | > 4 | > 4 | 21 | 250 (≈ 596 µM) | > 4 | > 31.7 | 16 | 1000 (≈ 2380 µM) | 19 | <1 | 21 | 17 | 250 (≈ 596 µM) | 500 (≈ 1190 µM) | 28.8 (≈ 68.7 µM) | <1 | 18 | 4 (≈ 9.54 µM) | 20 | IC50 [21]: > 31.7 µg/mL; MIC [22]: 200 µg/mL (≈ 477 µM); MIC [23]: 500 µg/mL (≈ 1190 µM); MIC [24]: 125 µg/mL (≈ 298 µM); zone of inhibition at 250 µg/mL [25]: 23 mm
10 | [O-]c1on[n+](-c2ccc(Cc3ccc(-[n+]4noc([O-])c4CN4CCCCC4)cc3)cc2)c1CN1CCCCC1 | 12.1 (≈ 22.7 µM) | 20 (≈ 37.7 µM) | > 4 | 23 | 500 (≈ 942 µM) | > 4 | > 12 | 20 | 125 (≈ 236 µM) | 20 | <1 | 16 | 18 | 500 (≈ 942 µM) | 250 (≈ 471 µM) | 12.6 (≈ 23.7 µM) | <1 | 22 | > 4 | ≥ 20 | IC50 [21]: > 12 µg/mL; MIC [22]: 125 µg/mL (≈ 236 µM); MIC [23]: 250 µg/mL (≈ 471 µM); MIC [24]: 500 µg/mL (≈ 942 µM); zone of inhibition at 250 µg/mL [25]: 21 mm
